Read-outs that look alike come from different tables or passages of the source.
Experiments:
[1] = system: Methicillin-resistant S. aureus (MRSA, ATCC 33591); experiment: microbe, parasite or virus in culture; format: cell-based, Staphylococcus aureus; conditions: for MIC: Staphylococcus aureus, read-out: MRSA (MIC)
Method: Therefore, increasing the solubility of high generation of nested hexagons may enable more efficient studies in biological media and translate to effective antimicrobial activity. […] In addition, the smaller size of G1 was expected to lead to weaker interaction with bacterial membranes.
(§1) Minimum inhibitory concentrations (MICs) against MRSA.4 The antimicrobial activity of the compounds are tested against Methicillin-resistant S. aureus (MRSA, ATCC 33591). Briefly, a single colony of MRSA bacterium was inoculated in 3 mL TSB medium and allowed to grow overnight at 37 °C. The bacteria culture was then diluted at 1:100 and the bacteria were able to re-grow to mid-logarithmic phase in 6-8 h. Next, 50 µL compounds in 2-fold serially diluted solution with the concentrations of 0.1-25 µg/mL were added the 96-well plate containing 50 µL of bacteria suspension (1 × 10^6 CFU/mL) in each well. Following that, the plate was incubated at 37 °C for 16 h, and the absorption of those wells at 600 nm wavelength was read on a Biotek Synergy H1 microtiter […]
growth of MRSA in 24 h. […]

[2] = system: human red blood cells (hRBCs); experiment: Hemolytic assay; format: cell-based; conditions: 37 °C, 1 h
Method: as §1
growth of MRSA in 24 h. The experiment were repeated at least three times with duplicates each […]
Hemolytic assay.4 The freshly drawn human red blood cells (hRBCs) were washed with 1× PBS buffer multiple times and centrifuged at 3500 rpm for 10 min, until the supernatant became clear. Next, the supernatant was removed, and the RBCs were diluted into 5% v/v suspension. The aliquots of suspension (50 µL) were then incubated with compounds at various concentrations in 2-fold serially diluted solution (50 µL) at 37 °C for 1 h. The mixture was centrifuged at 3500 rpm for 10 min and the supernatant was collected. Following that, 100 µL PBS was added to 30 µL of the supernatant, and the absorbance of the solution at 540 nm was read on a Biotek Synergy H1 plate reader. 2% Triton X-100 was used as the positive control and 1× PBS was used the negative control.
The hemolysis activity was calculated by the formula % hemolysis =
(Abssample-AbsPBS)/(AbsTriton-AbsPBS)×100%. The experiment was repeated at least three times with […]
Conductance measurement on the planar lipid bilayer. The lipids
1,2-dipalmitoyl-sn-glycero-3-phosphatidylglycerol (DPPG, Avanti Polar Lipids) and 1,2-dipalmitoyl-sn-glycero-3-phosphatidylethanolamine (DPPE, Avanti Polar Lipids) were mixed in chloroform (9:1 in molar ratio, 10 mg/mL, 20 µL). […]

E. coli = experiment: MIC against Gram-negative bacterium E. coli; format: cell-based
[3] = Escherichia coli, read-out: E. coli (MIC)

Row | MRSA (MIC) ([1]; ATCC 33591) [µg/mL] | Compound | Hemolysis (H50) [2] | MIC (E. coli; Escherichia coli; read-out: E. coli (MIC)) [µg/mL] | MIC ([1]; MRSA ATCC 33591, TSB medium, 37 °C) [µg/mL] | MIC (E. coli; [3]) [µg/mL] | MIC [1] [µg/mL]
1 | 0.5 | CCCCCCCCCC(=O)N[C@@H](Cc1c[nH]c2ccccc12)C(=O)N[C@H](CC(N)=O)C(=O)N[C@@H](CC(=O)O)C(=O)N[C@@H]1C(=O)NCC(=O)N[C@@H](CCCN)C(=O)N[C@@H](CC(=O)O)C(=O)N[C@H](C)C(=O)N[C@@H](CC(=O)O)C(=O)NCC(=O)N[C@H](CO)C(=O)N[C@@H]([C@H](C)CC(=O)O)C(=O)N[C@@H](CC(=O)c2ccccc2N)C(=O)O[C@@H]1C [Daptomycin, daptomycin, reference compound] | – | – | – | – | –
2 | – | CCCCCCOc1c(-c2ccc(N)cc2)c(OCCCCCC)c(-c2ccc(-c3cc(-c4ccccn4)nc(-c4ccccn4)c3)cc2)c(OCCCCCC)c1-c1ccc(-c2cc(-c3ccccn3)nc(-c3ccccn3)c2)cc1 [L1] | >250 | > 100 | > 100 | – | –
3 | – | CCCCCCOc1c(-c2ccc(-c3cc(-c4ccccn4)nc(-c4ccccn4)c3)cc2)c(OCCCCCC)c(-c2ccc(-[n+]3c(-c4ccc(-c5ccc(-c6cc(-c7ccccn7)nc(-c7ccccn7)c6)cc5)cc4)cc(-c4ccc(-[n+]5c(-c6ccc(-c7ccc(-c8ccc(-c9cc(-c%10ccccn%10)nc(-c%10ccccn%10)c9)cc8)cc7)cc6)cc(-c6ccc(C(C)(C)C)cc6)cc5-c5ccc(-c6ccc(-c7ccc(-c8cc(-c9ccccn9)nc(-c9ccccn9)c8)cc7)cc6)cc5)cc4)cc3-c3ccc(-c4ccc(-c5cc(-c6ccccn6)nc(-c6ccccn6)c5)cc4)cc3)cc2)c(OCCCCCC)c1-c1ccc(-c2cc(-c3ccccn3)nc(-c3ccccn3)c2)cc1 [L3] | >250 | – | – | > 100 | > 100
4 | – | CCCCCCOc1c(-c2ccc(-c3cc(-c4ccccn4)nc(-c4ccccn4)c3)cc2)c(OCCCCCC)c(-c2ccc(-[n+]3c(-c4ccc(-c5ccc(-c6cc(-c7ccccn7)nc(-c7ccccn7)c6)cc5)cc4)cc(-c4ccc(C(C)(C)C)cc4)cc3-c3ccc(-c4ccc(-c5cc(-c6ccccn6)nc(-c6ccccn6)c5)cc4)cc3)cc2)c(OCCCCCC)c1-c1ccc(-c2cc(-c3ccccn3)nc(-c3ccccn3)c2)cc1 [L2] | >250 | – | – | > 100 | > 100
